{"source": "paper PMC11249012", "about": "(Journal of Medicinal Chemistry, 2024)", "assay": "in vivo", "conditions": "BALB/c, mouse, ip", "data": [{"smiles": "CCC(CC)(c1ccc(C(=O)NCCCCC(=O)NO)cc1)c1ccc(OCC(O)C(C)(C)C)c(C)n1", "note": "(stereo not shown) [ZG-126, 4-(3-(5-(2-Hydroxy-3,3-dimethylbutoxy)-6-methylpyridin-2-yl)pentan-3-yl)-N-(5-(hydroxyamino)-5-oxopentyl)benzamide]", "values": [{"measurement": "MTD", "value": 10, "unit": "mg/kg"}]}]}
